From the supplement of paper PMC10307832

Key:
[1] = compound: C#Cc1cccc(Nc2ncnc3cc(OC)c(OCCCCCCC(=O)NO)cc23)c1 [CUDC-101] + Nc1nc2[nH]cc(CCc3ccc(C(=O)N[C@@H](CCC(=O)O)C(=O)O)cc3)c2c(=O)[nH]1 [Pemetrexed] (partner 0.2 µM); test: relative viability (nuclei count vs DMSO), 5 days (fraction); higher = more cells survive
Outline: (§1)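 A single step with final 0.05% Triton X-100, 1% formaldehyde and 1 ug/ml Hoechst fixed the cells and stained nuclei 5 days after treatment. Lung cancer cell lines in 1536-well plates had been treated by pin tool the day after seeding with one drug alone or a fixed anchor-drug dose plus five library-drug doses (not always all listed) in √10 steps, and nuclei were counted on 4× images. Relative viability is the ratio of nuclei in treated wells to nuclei in vehicle wells, taken as the median of duplicate plates.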

[2] = compound: COc1cc(N2CCC(N3CCN(C)CC3)CC2)ccc1Nc1ncc(Cl)c(Nc2ccccc2S(=O)(=O)C(C)C)n1 [NVP-TAE684] + CC1(C)CCC(c2ccc(Cl)cc2)=C(CN2CCN(c3ccc(C(=O)NS(=O)(=O)c4ccc(N[C@H](CCN5CCOCC5)CSc5ccccc5)c(S(=O)(=O)C(F)(F)F)c4)cc3)CC2)C1 [Navitoclax] (partner 0.5 µM); test: as above
Outline: as §1

Row | Cell Line | relative viability ([1]; first compound 0.01 µM) | relative viability ([1]; first compound 0.03162 µM) | relative viability ([1]; first compound 0.1 µM) | relative viability ([1]; first compound 0.3162 µM) | relative viability ([1]; first compound 1 µM) | relative viability ([2]; first compound 0.2 µM) | relative viability ([2]; first compound 0.6325 µM) | relative viability ([2]; first compound 2 µM)
1 | NCI-H2405 | 1.07 | 1 | 1.05 | 1.17 | 0.967 | 0.897 | 0.709 | 0.437
2 | NCI-H2087 | 0.681 | 0.699 | 0.648 | 0.605 | 0.678 | 1.11 | 1.17 | 0.766
3 | NCI-H2023 | 0.255 | 0.298 | 0.201 | 0.233 | 0.183 | 0.965 | 1.04 | 0.775
4 | NCI-H3122 | 0.19 | 0.21 | 0.191 | 0.209 | 0.22 | 0.282 | 0.525 | 0.176
5 | ChaGo-K-1 | 0.259 | 0.246 | 0.259 | 0.256 | 0.256 | 1.54 | 0.644 | 1.03
6 | NCI-H2347 | 0.458 | 0.418 | 0.434 | 0.479 | 0.405 | 0.716 | 0.826 | 0.752
7 | NCI-H460 | 0.0606 | 0.0635 | 0.0676 | 0.0669 | 0.0703 |  | 1.14 | 0.407
8 | HCC-827 | 0.237 | 0.241 | 0.163 | 0.137 | 0.138 | 0.935 | 0.982 | 0.978
9 | HOP-62 | 0.295 | 0.355 | 0.346 | 0.349 | 0.311 | 1.23 | 1.13 | 1.1
10 | NCI-H1792 | 0.856 | 0.787 | 0.915 | 0.721 | 0.581 | 0.533 | 0.579 | 0.558
11 | HCC-15 | 0.212 | 0.244 | 0.226 | 0.217 | 0.198 | 0.72 | 0.681 | 0.375
12 | NCI-H1755 | 0.425 | 0.42 | 0.441 | 0.407 | 0.384 | 1.06 | 1.06 | 0.921
13 | NCI-H23 | 0.757 | 0.744 | 0.604 | 0.755 | 0.514 | 0.806 | 0.785 | 0.607
14 | BEN | 0.812 | 0.727 | 0.78 | 0.703 | 0.769 | 0.188 | 0.0569 | 0.0697
15 | NCI-H1651 | 0.614 | 0.579 | 0.579 | 0.577 | 0.523 | 1.41 | 1.07 | 0.964
16 | NCI-H2126 | 0.635 | 0.659 | 0.761 | 0.687 | 0.529 | 0.951 | 0.84 | 0.621
17 | EKVX | 0.395 | 0.435 | 0.442 | 0.373 | 0.35 | 0.994 | 0.907 | 0.613
18 | NCI-H1650 | 0.381 | 0.297 | 0.389 | 0.397 | 0.351 |  | 1.08 | 0.545
19 | NCI-H1703 |  |  |  |  |  | 1.17 | 1.04 | 0.215

Row | Cell Line | relative viability ([1]; first compound 0.01 µM) | relative viability ([1]; first compound 0.03162 µM) | relative viability ([1]; first compound 0.1 µM) | relative viability ([1]; first compound 0.3162 µM) | relative viability ([1]; first compound 1 µM) | relative viability ([2]; first compound 0.2 µM) | relative viability ([2]; first compound 0.6325 µM) | relative viability ([2]; first compound 2 µM)
20 | NCI-H727 |  |  |  |  |  | 0.381 | 0.331 | 0.153
21 | NCI-H838 | 0.332 | 0.248 | 0.257 | 0.26 | 0.198 | 1.43 | 1.09 | 0.403
22 | NCI-H1944 | 0.62 | 0.615 | 0.597 | 0.582 | 0.43 | 1.19 | 0.961 | 1.08
23 | SK-LU-1 | 0.948 | 1.12 | 0.948 | 0.965 | 0.947 | 1.12 | 0.88 | 0.206
24 | LC-2-ad | 0.247 | 0.271 | 0.284 | 0.26 | 0.284 | 0.394 | 0.264 | 0.12
25 | LOU-NH91 | 0.411 | 0.414 | 0.421 | 0.315 | 0.341 | 0.644 | 0.607 | 0.463
26 | NCI-H2009 | 1.05 | 1.02 | 1.02 | 0.994 | 0.997 | 1.2 | 1.15 | 0.95
27 | NCI-H647 | 0.177 | 0.167 | 0.199 | 0.194 | 0.165 | 1.4 | 1.06 | 1.16
28 | NCI-H1666 | 0.985 | 0.843 | 0.774 | 0.854 | 0.833 | 0.932 | 0.919 | 0.566
29 | A-427 | 0.954 | 0.971 | 0.982 | 0.821 | 0.763 | 0.992 |  | 0.874
30 | NCI-H2170 | 0.281 | 0.257 | 0.24 | 0.234 | 0.254 | 0.56 | 0.585 | 0.591
31 | NCI-H1395 | 0.856 | 0.91 | 0.943 | 0.877 | 0.676 | 1.79 | 1.01 | 1.02
32 | NCI-H650 | 1.02 | 0.916 | 1 | 0.904 | 0.803 |  |  | 
33 | NCI-H1437 | 0.336 | 0.306 | 0.337 | 0.31 | 0.316 | 1.31 | 1.12 | 0.631
34 | EBC-1 |  |  |  |  |  | 0.323 | 0.247 | 0.245
35 | HCC-366 | 0.163 | 0.157 | 0.137 | 0.177 | 0.201 | 1.18 | 0.999 | 1.02
36 | NCI-H2342 | 0.842 | 0.757 | 0.76 | 0.819 | 0.742 |  |  | 
37 | NCI-H661 | 0.956 | 0.903 | 0.953 | 0.968 | 0.631 |  |  | 
38 | SW 900 | 0.502 | 0.429 | 0.452 | 0.454 | 0.448 |  |  | 
